From patent US8227422B2, “Peptides and compounds that bind to a receptor” (Glaxosmithkline LLC, priority 1996, dated 2012)
Read-outs that look alike come from different tables or passages of the source. Where a SMILES comes first, the peptide text is derived from it.

Columns and labels:
[1] = target: T1, human TPO-R (transfected Ba/F3 cells) (Homo sapiens, UniProt P40238); assay: Thrombopoietin dependent cell proliferation assay (MTT), TPO-R transfected Ba/F3 cells; format: cell-based
T1 construct: Murine IL-3 dependent Ba/F3 cells were transfected with full length human TPO-R; expressed in transfected cells; host or cells: murine Ba/F3 cells
T1 sequence (P40238 26-635): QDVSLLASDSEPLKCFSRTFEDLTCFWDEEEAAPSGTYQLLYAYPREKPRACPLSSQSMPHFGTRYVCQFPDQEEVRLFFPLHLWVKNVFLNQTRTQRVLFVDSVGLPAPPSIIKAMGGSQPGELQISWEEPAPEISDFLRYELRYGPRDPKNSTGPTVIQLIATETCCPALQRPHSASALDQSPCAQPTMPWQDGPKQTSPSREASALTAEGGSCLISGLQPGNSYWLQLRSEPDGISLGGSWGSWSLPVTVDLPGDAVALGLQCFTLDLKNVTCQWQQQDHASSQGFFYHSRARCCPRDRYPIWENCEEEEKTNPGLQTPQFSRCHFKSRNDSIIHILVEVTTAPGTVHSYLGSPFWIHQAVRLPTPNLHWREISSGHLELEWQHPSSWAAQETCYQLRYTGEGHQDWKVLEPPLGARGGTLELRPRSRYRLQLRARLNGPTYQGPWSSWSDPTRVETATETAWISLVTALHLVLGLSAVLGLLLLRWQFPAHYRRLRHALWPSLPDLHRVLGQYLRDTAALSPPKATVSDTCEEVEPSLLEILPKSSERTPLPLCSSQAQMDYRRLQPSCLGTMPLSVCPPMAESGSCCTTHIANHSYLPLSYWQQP
Experimental: Bioactivity of the peptides can be measured using a thrombopoietin dependent cell proliferation assay. Murine IL-3 dependent Ba/F3 cells were transfected with full length human TPO-R. In the absence of IL-3 (WEHI-3 conditioned media), these cells are dependent on TPO for proliferation.
The cells were grown in complete RPMI-10 media, containing 10% WEHI-3 conditioned media, then washed twice in PBS, resuspended in media which lacked WEHI-3 conditioned media, and added to wells containing dilutions of peptide or TPO at 2×10^4 cells/well. The cells were incubated for 48 hours at 37° C. in a humidified 5% CO2 atmosphere and metabolic activity was assayed by the reduction of MTT to formazan, with absorbance at 570 nm measured on an ELISA plate reader.

TPO receptor = target: T2, TPO receptor (Homo sapiens, UniProt P40238); assay: Microphysiometer assay: rate of acidification of extracellular medium on TPO receptor stimulation; format: cell-based
T2 sequence (P40238 26-635): T1 sequence (P40238 26-635)
Experimental: In this example cyclized compounds were subjected to three assays. […] Finally, a microphysiometer (Molecular Devices Corp.) assay was performed. […] The ranges for EC50 are symbolically indicated as for IC50 described above.

[2] = Table 4, cyclized compounds, read-out: EC50 (nM) Proliferation
[3] = Table 4, cyclized compounds, microphysiometer, read-out: EC50 (nM) Microonys

EC50 [1, 2]	EC50 (TPO receptor; [3])	SMILES	other results
< 200000 nM	< 200000 nM	CC[C@H](C)[C@@H]1NC(=O)[C@H](Cc2c[nH]c3ccccc23)NC(=O)[C@H](CCC(=O)O)NC(=O)[C@H](CCCNC(=N)N)NC(=O)[C@H](CC(C)C)NC(=O)[C@H]([C@@H](C)O)NC(=O)[C@@H]2CCCN2C(=O)CNC(=O)[C@H](CC(=O)O)NC(=O)[C@H](C)NC(=O)[C@@H](N)CCC(=O)NCCCC[C@@H](C(N)=O)NC(=O)[C@H](Cc2ccccc2)NC(=O)[C@H](CO)NC1=O (HELM PEPTIDE1{E.A.D.G.P.T.L.R.E.W.I.S.F.K.[am]}$PEPTIDE1,PEPTIDE1,1:R3-14:R3$$$V2.0)	
< 200000 nM	< 200000 nM	CC[C@H](C)[C@@H]1NC(=O)[C@H](Cc2c[nH]c3ccccc23)NC(=O)[C@H](CCC(=O)O)NC(=O)[C@H](CCCNC(=N)N)NC(=O)[C@H](CC(C)C)NC(=O)[C@H]([C@@H](C)O)NC(=O)[C@@H]2CCCN2C(=O)CNC(=O)[C@H](CC(=O)O)NC(=O)[C@H](C)NC(=O)[C@@H](N)C(C)(C)SSC(C)(C)[C@@H](C(N)=O)NC(=O)[C@H](Cc2ccccc2)NC(=O)[C@H](CO)NC1=O (HELM PEPTIDE1{[Pen].A.D.G.P.T.L.R.E.W.I.S.F.[Pen].[am]}$PEPTIDE1,PEPTIDE1,1:R3-14:R3$$$V2.0)	

The next lines start with the molecule.

SMILES	EC50 [1, 2]	EC50 (TPO receptor; [3])	other results
CCCC1SC[C@@H](C(N)=O)NC(=O)[C@H](Cc2ccccc2)NC(=O)[C@H](CO)NC(=O)[C@H]([C@@H](C)CC)NC(=O)[C@H](Cc2c[nH]c3ccccc23)NC(=O)[C@H](CCC(=O)O)NC(=O)[C@H](CCCNC(=N)N)NC(=O)[C@H](CC(C)C)NC(=O)[C@H]([C@@H](C)O)NC(=O)[C@@H]2CCCN2C(=O)CNC(=O)[C@H](CC(=O)O)NC(=O)[C@H](C)NC1=O (stereo partly drawn) (HELM PEPTIDE1{A.D.G.P.T.L.R.E.W.I.S.F.C.[am]}|CHEM1{[CCCC(C(=O)[*:1])[*:2]]}$PEPTIDE1,CHEM1,1:R1-1:R1|PEPTIDE1,CHEM1,13:R3-1:R2$$$V2.0)	< 500 nM	< 200000 nM	
CC[C@H](C)[C@@H]1NC(=O)[C@H](Cc2c[nH]c3ccccc23)NC(=O)[C@H](CCC(=O)O)NC(=O)[C@H](CCCNC(=N)N)NC(=O)[C@H](CC(C)C)NC(=O)[C@H]([C@@H](C)O)NC(=O)[C@@H]2CCCN2C(=O)CNC(=O)[C@H](CC(=O)O)NC(=O)[C@H](C)NC(=O)[C@H](N)CSSC[C@H](C(N)=O)NC(=O)[C@H](Cc2ccccc2)NC(=O)[C@H](CO)NC1=O (HELM PEPTIDE1{[dC].A.D.G.P.T.L.R.E.W.I.S.F.[dC].[am]}$PEPTIDE1,PEPTIDE1,1:R3-14:R3$$$V2.0)	< 200000 nM	< 200000 nM	
CC[C@H](C)[C@@H]1NC(=O)[C@H](Cc2c[nH]c3ccccc23)NC(=O)[C@H](CCC(=O)O)NC(=O)[C@H](CCCNC(=N)N)NC(=O)[C@H](CC(C)C)NC(=O)[C@H]([C@@H](C)O)NC(=O)[C@@H]2CCCN2C(=O)CNC(=O)[C@H](CC(=O)O)NC(=O)[C@H](C)NC(=O)[C@@H](N)CCSSC[C@@H](C(N)=O)NC(=O)[C@H](Cc2ccccc2)NC(=O)[C@H](CO)NC1=O (HELM PEPTIDE1{[N[C@@H](CCS[*:3])C(=O)[*:2]].A.D.G.P.T.L.R.E.W.I.S.F.C.[am]}$PEPTIDE1,PEPTIDE1,1:R3-14:R3$$$V2.0)	< 500 nM	< 500 nM	
CC[C@H](C)[C@@H]1NC(=O)[C@H](Cc2c[nH]c3ccccc23)NC(=O)[C@H](CCC(=O)O)NC(=O)[C@H](CCCNC(=N)N)NC(=O)[C@H](CC(C)C)NC(=O)[C@H]([C@@H](C)O)NC(=O)[C@@H]2CCCN2C(=O)CNC(=O)[C@H](CC(=O)O)NC(=O)[C@H](C)NC(=O)CSC[C@@H](C(N)=O)NC(=O)[C@H](Cc2ccccc2)NC(=O)[C@H](CO)NC1=O (HELM PEPTIDE1{[O=C(C[*:3])[*:2]].A.D.G.P.T.L.R.E.W.I.S.F.C.[am]}$PEPTIDE1,PEPTIDE1,1:R3-14:R3$$$V2.0)	< 500 nM	< 500 nM	
CC[C@H](C)[C@@H]1NC(=O)[C@H](Cc2c[nH]c3ccccc23)NC(=O)[C@H](CCC(=O)O)NC(=O)[C@H](CCCNC(=N)N)NC(=O)[C@H](CC(C)C)NC(=O)[C@H]([C@@H](C)O)NC(=O)[C@@H]2CCCN2C(=O)CNC(=O)[C@H](CC(=O)O)NC(=O)[C@H](C)NC(=O)[C@@H](N)CCCCNC(=O)CC[C@@H](C(N)=O)NC(=O)[C@H](Cc2ccccc2)NC(=O)[C@H](CO)NC1=O (HELM PEPTIDE1{K.A.D.G.P.T.L.R.E.W.I.S.F.E.[am]}$PEPTIDE1,PEPTIDE1,1:R3-14:R3$$$V2.0)	< 200000 nM	< 200000 nM	
CC(C)C[C@H](NC(=O)[C@H](Cc1c[nH]c2ccccc12)NC(=O)[C@H](CCC(N)=O)NC(=O)[C@H](CCCNC(=N)N)NC(=O)[C@H](CC(C)C)NC(=O)[C@@H](NC(=O)[C@@H]1CCCN1C(=O)CNC(=O)[C@H](CSSC[C@H](NC(=O)[C@H](CCC(N)=O)NC(=O)[C@@H](NC(=O)[C@@H](N)CO)C(C)C)C(=O)NCC(=O)N1CCC[C@H]1C(=O)N[C@H](C(=O)N[C@@H](CC(C)C)C(=O)N[C@@H](CCCNC(=N)N)C(=O)N[C@@H](CCC(N)=O)C(=O)N[C@@H](Cc1c[nH]c2ccccc12)C(=O)N[C@@H](CC(C)C)C(=O)N[C@@H](C)C(=O)N[C@@H](C)C(=O)N[C@@H](CCCNC(=N)N)C(=O)N[C@@H](CC(N)=O)C(=O)N[C@@H](Cc1c[nH]cn1)C(=O)N[C@@H](CC(C)C)C(=O)N[C@@H](CO)C(N)=O)[C@@H](C)O)NC(=O)[C@H](CCC(N)=O)NC(=O)[C@@H](NC(=O)[C@@H](N)CO)C(C)C)[C@@H](C)O)C(=O)N[C@@H](C)C(=O)N[C@@H](C)C(=O)N[C@@H](CCCNC(=N)N)C(=O)N[C@@H](CC(N)=O)C(=O)N[C@@H](Cc1c[nH]cn1)C(=O)N[C@@H](CC(C)C)C(=O)N[C@@H](CO)C(N)=O (HELM PEPTIDE1{S.V.Q.C.G.P.T.L.R.Q.W.L.A.A.R.N.H.L.S.[am]}|PEPTIDE2{S.V.Q.C.G.P.T.L.R.Q.W.L.A.A.R.N.H.L.S.[am]}$PEPTIDE1,PEPTIDE2,4:R3-4:R3$$$V2.0; bridges inferred)			EC50 ([1]; Table 7, dimer compounds, read-out: EC50 (nM) Prolif.): < 500 nM; EC50 (TPO receptor; Table 7, dimer compounds, read-out: EC50 (nM) Microonys.): < 500 nM
CC[C@H](C)[C@@H]1NC(=O)[C@H](Cc2c[nH]c3ccccc23)NC(=O)[C@H](CCC(=O)O)NC(=O)[C@H](CCCNC(=N)N)NC(=O)[C@H](CC(C)C)NC(=O)[C@H]([C@@H](C)O)NC(=O)[C@@H]2CCCN2C(=O)CNC(=O)[C@H](CC(=O)O)NC(=O)[C@H](C)NC(=O)CSC[C@@H](C(=O)O)NC(=O)[C@H](Cc2ccccc2)NC(=O)[C@H](CO)NC1=O [free acid form] (HELM PEPTIDE1{[O=C(C[*:3])[*:2]].A.D.G.P.T.L.R.E.W.I.S.F.C}$PEPTIDE1,PEPTIDE1,1:R3-14:R3$$$V2.0)			EC50 ([1]; Table 6, read-out: EC50 (nM) Cell Prolif.): < 500 nM; EC50 (TPO receptor; Table 6, value in parentheses, read-out: EC50 (nM), microphysiometer results in parentheses): < 200000 nM
